Reference: patent publication US9999622B2, “Pyrazolothiazole compound and medicine comprising same” (NIPPON SHINYAKU CO., LTD., priority 2014, dated 2018)
Where a name gives a salt, the structure may show the parent alone.

Assays:
Format in all cases: biochemical
JAK1 = target: T1, JAK1 (Homo sapiens, UniProt P23458); assay: JAK tyrosine kinase inhibitory activity in the presence of 1 mM ATP (ELISA), JAK1
T1 construct: purchased Carna Biosciences, Inc
Outline: (§1)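 Kinase reactions ran on streptavidin-coated plates in 15 mM Tris-HCl pH 7.5, 0.01% Tween-20, 1 mM DTT, 30 °C for 1 h. Enzyme was prediluted to 7.5 nM (JAK1) or 0.75 nM (JAK2, JAK3) before addition. Phosphotyrosine was detected with HRP anti-pTyr antibody and TMB at A450.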

JAK2 = target: T2, JAK2 (Homo sapiens, UniProt O60674); assay: JAK tyrosine kinase inhibitory activity in the presence of 1 mM ATP (ELISA), JAK2
T2 construct: purchased Carna Biosciences, Inc
Outline: as §1

JAK3 = target: T3, JAK3 (Homo sapiens, UniProt P52333); assay: JAK tyrosine kinase inhibitory activity in the presence of 1 mM ATP (ELISA), JAK3
T3 construct: purchased Carna Biosciences, Inc
T3 sequence (P52333 1-1124): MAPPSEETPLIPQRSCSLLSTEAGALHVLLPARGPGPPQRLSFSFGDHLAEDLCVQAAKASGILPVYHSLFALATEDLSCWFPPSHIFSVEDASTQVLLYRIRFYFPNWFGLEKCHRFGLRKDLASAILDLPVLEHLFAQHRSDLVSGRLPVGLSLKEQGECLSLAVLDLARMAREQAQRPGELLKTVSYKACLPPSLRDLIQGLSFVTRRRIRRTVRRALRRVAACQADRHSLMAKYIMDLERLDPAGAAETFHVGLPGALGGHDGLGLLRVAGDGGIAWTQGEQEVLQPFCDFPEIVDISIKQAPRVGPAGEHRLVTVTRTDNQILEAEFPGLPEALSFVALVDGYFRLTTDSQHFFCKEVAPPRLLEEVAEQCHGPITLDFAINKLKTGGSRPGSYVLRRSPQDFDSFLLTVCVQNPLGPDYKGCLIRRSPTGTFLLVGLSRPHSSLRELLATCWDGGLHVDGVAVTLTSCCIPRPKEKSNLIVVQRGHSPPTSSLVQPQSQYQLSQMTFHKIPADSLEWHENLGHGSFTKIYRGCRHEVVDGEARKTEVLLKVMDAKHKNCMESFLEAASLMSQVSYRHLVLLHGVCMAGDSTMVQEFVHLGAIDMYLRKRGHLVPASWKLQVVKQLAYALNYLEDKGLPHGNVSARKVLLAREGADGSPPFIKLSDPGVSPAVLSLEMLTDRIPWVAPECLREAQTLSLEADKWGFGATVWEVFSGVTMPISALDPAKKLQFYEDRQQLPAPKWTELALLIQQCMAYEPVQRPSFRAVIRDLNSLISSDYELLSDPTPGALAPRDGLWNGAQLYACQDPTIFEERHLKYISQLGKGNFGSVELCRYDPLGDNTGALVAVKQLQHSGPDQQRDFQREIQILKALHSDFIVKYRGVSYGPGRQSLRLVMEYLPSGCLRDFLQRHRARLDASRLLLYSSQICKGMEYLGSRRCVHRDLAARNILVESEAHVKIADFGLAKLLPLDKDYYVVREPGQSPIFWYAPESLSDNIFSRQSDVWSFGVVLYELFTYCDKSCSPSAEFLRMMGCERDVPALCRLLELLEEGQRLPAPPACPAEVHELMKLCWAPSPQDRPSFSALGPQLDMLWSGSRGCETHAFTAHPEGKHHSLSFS
Outline: as §1

T2 sequence (O60674 whole entry): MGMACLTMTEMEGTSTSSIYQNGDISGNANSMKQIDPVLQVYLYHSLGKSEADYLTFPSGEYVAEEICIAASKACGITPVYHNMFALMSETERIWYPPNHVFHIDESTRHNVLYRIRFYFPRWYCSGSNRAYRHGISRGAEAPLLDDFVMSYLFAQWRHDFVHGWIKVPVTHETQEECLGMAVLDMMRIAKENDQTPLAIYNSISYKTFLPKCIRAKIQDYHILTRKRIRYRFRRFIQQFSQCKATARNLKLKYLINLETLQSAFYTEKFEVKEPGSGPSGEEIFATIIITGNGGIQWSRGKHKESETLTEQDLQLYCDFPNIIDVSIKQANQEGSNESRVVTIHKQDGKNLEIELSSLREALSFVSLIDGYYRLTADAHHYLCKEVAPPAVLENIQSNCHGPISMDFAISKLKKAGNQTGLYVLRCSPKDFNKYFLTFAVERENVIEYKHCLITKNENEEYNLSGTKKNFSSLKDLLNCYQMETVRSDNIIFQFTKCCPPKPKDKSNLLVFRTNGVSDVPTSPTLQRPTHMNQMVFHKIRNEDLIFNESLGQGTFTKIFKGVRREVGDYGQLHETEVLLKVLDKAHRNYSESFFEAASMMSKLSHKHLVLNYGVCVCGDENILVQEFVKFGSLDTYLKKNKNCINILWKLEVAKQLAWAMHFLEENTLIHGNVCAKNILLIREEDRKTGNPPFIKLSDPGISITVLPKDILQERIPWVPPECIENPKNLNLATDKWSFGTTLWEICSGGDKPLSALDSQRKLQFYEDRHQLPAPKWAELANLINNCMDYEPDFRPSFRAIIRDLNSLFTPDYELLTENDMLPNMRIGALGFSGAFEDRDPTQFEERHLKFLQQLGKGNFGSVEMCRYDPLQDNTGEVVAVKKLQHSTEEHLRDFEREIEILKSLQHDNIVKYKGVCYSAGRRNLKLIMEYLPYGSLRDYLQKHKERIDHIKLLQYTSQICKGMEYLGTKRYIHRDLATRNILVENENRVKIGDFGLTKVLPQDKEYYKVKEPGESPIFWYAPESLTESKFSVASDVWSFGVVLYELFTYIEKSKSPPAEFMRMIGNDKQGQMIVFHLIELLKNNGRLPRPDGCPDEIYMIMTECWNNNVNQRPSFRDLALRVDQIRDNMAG
T1 sequence (P23458 whole entry): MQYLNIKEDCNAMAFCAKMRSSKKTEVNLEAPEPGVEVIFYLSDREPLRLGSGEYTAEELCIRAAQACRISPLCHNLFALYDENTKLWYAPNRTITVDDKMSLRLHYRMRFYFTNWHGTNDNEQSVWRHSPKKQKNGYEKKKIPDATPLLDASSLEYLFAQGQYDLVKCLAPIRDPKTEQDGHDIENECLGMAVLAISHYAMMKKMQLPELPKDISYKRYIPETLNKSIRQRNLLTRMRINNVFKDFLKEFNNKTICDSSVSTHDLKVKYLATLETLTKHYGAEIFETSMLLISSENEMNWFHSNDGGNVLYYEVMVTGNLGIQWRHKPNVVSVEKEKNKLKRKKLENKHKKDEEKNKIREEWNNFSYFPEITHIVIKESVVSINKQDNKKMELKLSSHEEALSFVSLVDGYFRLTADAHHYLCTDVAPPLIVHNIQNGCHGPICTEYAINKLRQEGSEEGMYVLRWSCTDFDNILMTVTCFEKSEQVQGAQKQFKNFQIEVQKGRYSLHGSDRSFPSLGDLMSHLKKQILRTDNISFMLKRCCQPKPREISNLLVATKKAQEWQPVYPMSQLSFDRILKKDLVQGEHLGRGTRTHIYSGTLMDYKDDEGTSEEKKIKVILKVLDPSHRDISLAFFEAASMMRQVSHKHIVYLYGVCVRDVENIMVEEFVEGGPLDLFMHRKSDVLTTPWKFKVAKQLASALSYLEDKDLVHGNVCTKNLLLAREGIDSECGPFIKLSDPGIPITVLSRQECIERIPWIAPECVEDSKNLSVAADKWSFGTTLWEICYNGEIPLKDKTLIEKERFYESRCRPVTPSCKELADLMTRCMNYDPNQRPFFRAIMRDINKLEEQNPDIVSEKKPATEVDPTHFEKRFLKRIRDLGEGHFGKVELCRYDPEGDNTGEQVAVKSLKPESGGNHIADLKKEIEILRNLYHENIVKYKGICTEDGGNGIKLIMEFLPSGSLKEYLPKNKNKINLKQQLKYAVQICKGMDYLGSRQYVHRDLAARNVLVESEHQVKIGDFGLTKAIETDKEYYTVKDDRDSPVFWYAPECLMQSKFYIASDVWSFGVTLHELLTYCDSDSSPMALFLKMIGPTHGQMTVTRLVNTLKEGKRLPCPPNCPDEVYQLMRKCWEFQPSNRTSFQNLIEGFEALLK

Row | SMILES | IC50 (JAK1) [nM] | IC50 (JAK2) [nM] | IC50 (JAK3) [nM]
1 | CCC(CC)Oc1cc(C(=O)N2CCC(NC(=O)OC)CC2)nc(-c2cnn3ccsc23)n1 [Example 108, Methyl (1-{[6-(pentan-3-yloxy)-2-(pyrazolo[5,1-b][1,3]thiazol-7-yl)pyrimidin-4-yl]carbonyl}piperidin-4-yl)carbamate] | 200 | 2500 | > 10000
2 | CCC(CC)Nc1cc(C(=O)N2CCC(NC(=O)OC)CC2)nc(-c2cnn3ccsc23)n1 [Example 109, Methyl (1-{[6-(pentan-3-ylamino)-2-(pyrazolo[5,1-b][1,3]thiazol-7-yl)pyrimidin-4-yl]carbonyl}piperidin-4-yl)carbamate] | 190 | 1800 | 2400
3 | CCC(CC)CNc1cc(C(=O)N2CCC(NC(=O)C3CC3)CC2)nc(-c2cnn3ccsc23)n1 [Example 110, N-[1-({6-[(2-Ethylbutyl)amino]-2-(pyrazolo[5,1-b][1,3]thiazol-7-yl)pyrimidin-4-yl}carbonyl)piperidin-4-yl]cyclopropanecarboxamide] | 78 | 880 | > 10000
4 | CCC(CC)Oc1cc(C(=O)N2CCC(NC(=O)C3CC3)CC2)nc(-c2cnn3ccsc23)n1 [Example 111, N-(1-{[6-(Pentan-3-yloxy)-2-(pyrazolo[5,1-b][1,3]thiazol-7-yl)pyrimidin-4-yl]carbonyl}piperidin-4-yl)cyclopropanecarboxamide] | 120 | 2400 | > 10000
5 | CCC(CC)N(C)c1cc(C(=O)N2CCC(NC(=O)OC)CC2)nc(-c2cnn3ccsc23)n1 [Example 112, Methyl [1-({6-[methyl(pentan-3-yl)amino]-2-(pyrazolo[5,1-b][1,3]thiazol-7-yl)pyrimidin-4-yl}carbonyl)piperidin-4-yl]carbamate] | 350 | 3500 | 2900
6 | CCC(=O)NC1CCN(C(=O)c2cc(OCC(CC)CC)nc(-c3cnn4ccsc34)n2)CC1 [Example 114, N-(1-{[6-(2-Ethylbutoxy)-2-(pyrazolo[5,1-b][1,3]thiazol-7-yl)pyrimidin-4-yl]carbonyl}piperidin-4-yl)propanamide] | 360 | 1200 | 2700
7 | CCC(=O)NC1CCN(C(=O)c2cc(N(C)C(CC)CC)nc(-c3cnn4ccsc34)n2)CC1 [Example 116, N-[1-({6-[Methyl(pentan-3-yl)amino]-2-(pyrazolo[5,1-b][1,3]thiazol-7-yl)pyrimidin-4-yl}carbonyl)piperidin-4-yl]propanamide] | 210 | 1900 | 3800
8 | N#CC1(Nc2cc(C(=O)N3CCC(O)CC3)nc(-c3cnn4ccsc34)n2)CC1 [Example 117, 1-({6-[(4-Hydroxypiperidin-1-yl)carbonyl]-2-(pyrazolo[5,1-b][1,3]thiazol-7-yl)pyrimidin-4-yl}amino)cyclopropanecarbonitrile hydrochloride] | 1400 | > 10000 | 5700
9 | CCC(=O)NC1CCN(C(=O)c2cc(NCC(C)(C)OC)nc(-c3cnn4ccsc34)n2)CC1 [Example 119, N-[1-({6-[(2-Methoxy-2-methylpropyl)amino]-2-(pyrazolo[5,1-b][1,3]thiazol-7-yl)pyrimidin-4-yl}carbonyl)piperidin-4-yl]propanamide] | 670 | 4200 | > 10000
10 | CCC(CC)N(C)c1cc(C(=O)N2CCC(O)CC2)nc(-c2cnn3ccsc23)n1 [Example 120, (4-Hydroxypiperidin-1-yl){6-[methyl(pentan-3-yl)amino]-2-(pyrazolo[5,1-b][1,3]thiazol-7-yl)pyrimidin-4-yl}methanone hydrochloride] | 870 | 3000 | 3400
11 | CC(C)[C@H](C)Nc1cc(C(=O)N2CCC(NC(=O)C3CC3)CC2)nc(-c2cnn3ccsc23)n1 [Example 123, N-(1-{[6-{[(2S)-3-Methylbutan-2-yl]amino}-2-(pyrazolo[5,1-b][1,3]thiazol-7-yl)pyrimidin-4-yl]carbonyl}piperidin-4-yl)cyclopropanecarboxamide] | 260 | 1400 | 1600
12 | CCC(CC)Nc1cc(C(=O)N2CCC(NC(=O)C3CC3)CC2)nc(-c2cnn3ccsc23)n1 [Example 124, N-(1-{[6-(Pentan-3-ylamino)-2-(pyrazolo[5,1-b][1,3]thiazol-7-yl)pyrimidin-4-yl]carbonyl}piperidin-4-yl)cyclopropanecarboxamide] | 220 | 1700 | 2200
13 | CCC(=O)NC1CCN(C(=O)c2cc(NC3(C)CC3)nc(-c3cnn4ccsc34)n2)CC1 [Example 128, N-[1-({6-[(1-Methylcyclopropyl)amino]-2-(pyrazolo[5,1-b][1,3]thiazol-7-yl)pyrimidin-4-yl}carbonyl)piperidin-4-yl]propanamide] | 760 | 8500 | > 10000
14 | CCC(=O)NC1CCN(C(=O)c2cc(N[C@@H](C)CC)nc(-c3cnn4ccsc34)n2)CC1 [Example 131, N-[1-({6-[(2S)-Butan-2-ylamino]-2-(pyrazolo[5,1-b][1,3]thiazol-7-yl)pyrimidin-4-yl}carbonyl)piperidin-4-yl]propanamide] | 310 | 2200 | 4700
15 | COC(=O)NC1CCN(C(=O)c2cc(N(C)C(C)(C)C)nc(-c3cnn4ccsc34)n2)CC1 [Example 132, Methyl [1-({6-[tert-butyl(methyl)amino]-2-(pyrazolo[5,1-b][1,3]thiazol-7-yl)pyrimidin-4-yl}carbonyl)piperidin-4-yl]carbamate hydrochloride] | 790 | > 10000 | > 10000
16 | CCN(c1cc(C(=O)N2CCC(O)CC2)nc(-c2cnn3ccsc23)n1)C(C)(C)C [Example 133, {6-[tert-Butyl(ethyl)amino]-2-(pyrazolo[5,1-b][1,3]thiazol-7-yl)pyrimidin-4-yl}(4-hydroxypiperidin-1-yl)methanone] | 2900 | > 10000 | > 10000
17 | CC(C)(C)Nc1cc(C(=O)N2CCC(NC(=O)OC3CC3)CC2)nc(-c2cnn3ccsc23)n1 [Example 135, Cyclopropyl (1-{[6-(tert-butylamino)-2-(pyrazolo[5,1-b][1,3]thiazol-7-yl)pyrimidin-4-yl]carbonyl}piperidin-4-yl)carbamate] | 68 | 2400 | 3700
18 | CC(C)[C@@H](C)Nc1cc(C(=O)N2CCC(NC(=O)C(F)F)CC2)nc(-c2cnn3ccsc23)n1 [Example 136, 2,2-Difluoro-N-(1-{[6-{[(2R)-3-methylbutan-2-yl]amino}-2-(pyrazolo[5,1-b][1,3]thiazol-7-yl)pyrimidin-4-yl]carbonyl}piperidin-4-yl)acetamide] | 490 | 1400 | 3500
19 | CN(C)C(=O)NC1CCN(C(=O)c2cc(NCC(C)(C)C)nc(-c3cnn4ccsc34)n2)CC1 [Example 137, 3-[1-({6-[(2,2-Dimethylpropyl)amino]-2-(pyrazolo[5,1-b][1,3]thiazol-7-yl)pyrimidin-4-yl}carbonyl)piperidin-4-yl]-1,1-dimethylurea] | 640 | 1400 | 4200
20 | C[C@@H](Nc1cc(C(=O)N2CCC(NC(=O)N(C)C)CC2)nc(-c2cnn3ccsc23)n1)C1CC1 [Example 138, 3-(1-{[6-{[(1R)-1-Cyclopropylethyl]amino}-2-(pyrazolo[5,1-b][1,3]thiazol-7-yl)pyrimidin-4-yl]carbonyl}piperidin-4-yl)-1,1-dimethylurea] | 650 | 2000 | 4300
21 | CC(C)OC(=O)NC1CCN(C(=O)c2cc(NC3(C)COC3)nc(-c3cnn4ccsc34)n2)CC1 [Example 139, Propan-2-yl [1-({6-[(3-methyloxetan-3-yl)amino]-2-(pyrazolo[5,1-b][1,3]thiazol-7-yl)pyrimidin-4-yl}carbonyl)piperidin-4-yl]carbamate] | 43 | 2900 | 2100
